Source: PubChem BioAssay (NCI)
Where “and” joins values, the source holds several entries; their conditions need not be identical. Equal entries are not always repeated.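 In this assay, cells in 96-well plates receive the compound at five concentrations for 48 hours. Endpoints are linearly interpolated between the surrounding concentrations. At the GI50, growth is halved. TGI denotes the concentration required for complete inhibition of growth.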

What was measured:
Assay in all cases: NCI tumour cell line growth inhibition, 48 h
CCRF-CEM leukemia = system: CCRF-CEM leukemia
COLO 205 colon = system: COLO 205 colon
MOLT-4 leukemia = system: MOLT-4 leukemia
RXF 393 renal = system: RXF 393 renal
OVCAR-8 ovarian = system: OVCAR-8 ovarian
OVCAR-5 ovarian = system: OVCAR-5 ovarian
OVCAR-4 ovarian = system: OVCAR-4 ovarian
M14 melanoma = system: M14 melanoma
K-562 leukemia = system: K-562 leukemia
DU-145 prostate = system: DU-145 prostate

## N/C(=N\OC(=O)c1ccccc1)C(C(=O)NOC(=O)c1ccccc1)C1CCCCC1 (stereo not given)
CCRF-CEM leukemia
  GI50: 2.71 µM
  TGI: 9.79 µM
COLO 205 colon
  GI50: 11.6 µM
  TGI: 26.8 µM
MOLT-4 leukemia
  GI50: 6.62 µM
  TGI: 49.8 µM
RXF 393 renal
  GI50: 8.59 µM
  TGI: 65.1 µM
OVCAR-8 ovarian
  GI50: 3.38 µM
  TGI: 14.8 µM
OVCAR-5 ovarian
  GI50: 14.6 µM
  TGI: 28.2 µM
OVCAR-4 ovarian
  GI50: 9.4 µM
  TGI: 37.6 µM
M14 melanoma
  GI50: 10.9 µM
  TGI: 23 µM
K-562 leukemia
  GI50: 3.08 µM
  TGI: 10.6 µM
DU-145 prostate
  GI50: 2.76 µM
  TGI: 10.3 µM

## Cc1ccc(C(=O)/C(=C/c2ccc([N+](=O)[O-])cc2)S(=O)Cc2ccccc2)cc1 (stereo not given)
CCRF-CEM leukemia
  GI50: 0.396 µM
  TGI: > 100 µM
COLO 205 colon
  GI50: 1.47 µM
  TGI: 3.16 µM
RXF 393 renal
  GI50: 1.47 µM
  TGI: 3 µM
OVCAR-8 ovarian
  GI50: 1.36 µM
  TGI: 3.23 µM
OVCAR-5 ovarian
  GI50: 1.69 µM
  TGI: 3.61 µM
OVCAR-4 ovarian
  GI50: 1.35 µM
  TGI: 2.78 µM
M14 melanoma
  GI50: 1.48 µM
  TGI: 2.94 µM
K-562 leukemia
  GI50: 0.623 µM
  TGI: 12.4 µM
DU-145 prostate
  GI50: 1.34 µM
  TGI: 2.69 µM

## Cc1cc2c(cc1C)NC1=C(N2)OC(c2c[nH]c3ccc(COc4ccccc4)cc23)C1=O (stereo not given)
COLO 205 colon
  TGI: > 100 µM
MOLT-4 leukemia
  TGI: > 100 µM
RXF 393 renal
  TGI: > 100 µM
OVCAR-8 ovarian
  TGI: > 100 µM
OVCAR-5 ovarian
  TGI: > 100 µM
OVCAR-4 ovarian
  TGI: > 100 µM
M14 melanoma
  TGI: > 100 µM
K-562 leukemia
  TGI: > 100 µM
DU-145 prostate
  TGI: > 100 µM

## Nc1c(C(=O)Nc2ccc([As](=O)(O)O)cc2)cnc2nnnn12
CCRF-CEM leukemia
  TGI: > 100 µM
COLO 205 colon
  TGI: > 100 µM
MOLT-4 leukemia
  TGI: > 100 µM
RXF 393 renal
  TGI: > 100 µM
OVCAR-8 ovarian
  TGI: > 100 µM
OVCAR-5 ovarian
  TGI: > 100 µM
OVCAR-4 ovarian
  TGI: > 100 µM
M14 melanoma
  TGI: > 100 µM
K-562 leukemia
  TGI: > 100 µM
DU-145 prostate
  TGI: > 100 µM

## CC[C@H](C)[C@H](NC(=O)c1cnccn1)C(=O)N(C)[C@H](C[C@@H](OC(C)=O)c1nc(C(=O)N[C@@H](Cc2ccccc2)C[C@H](C)C(=O)OC)cs1)C(C)C
CCRF-CEM leukemia
  GI50: 1.15 µM
  TGI: > 33.3 µM
COLO 205 colon
  GI50: 1.17 µM
  TGI: 4.1 µM
MOLT-4 leukemia
  GI50: 2.23 µM
  TGI: > 33.3 µM
OVCAR-8 ovarian
  GI50: 1.68 µM
  TGI: > 33.3 µM
OVCAR-5 ovarian
  GI50: 3.71 µM
  TGI: > 33.3 µM
OVCAR-4 ovarian
  GI50: 2.52 µM
  TGI: > 33.3 µM
M14 melanoma
  GI50: 0.81 µM
  TGI: 2.76 µM
K-562 leukemia
  GI50: 0.662 µM
  TGI: > 33.3 µM
DU-145 prostate
  GI50: 1.23 µM
  TGI: > 33.3 µM

## C/C(=N\O)c1ccc(Nc2cc(-n3nnc4ccccc43)nc3ccccc23)cc1
CCRF-CEM leukemia
  GI50: 2.75 µM
  TGI: 30.3 µM
COLO 205 colon
  GI50: 9.47 µM
  TGI: > 39.2 µM
MOLT-4 leukemia
  GI50: 2.85 µM
  TGI: 15.4 µM
OVCAR-8 ovarian
  GI50: 5.65 µM
  TGI: 18.3 µM
OVCAR-5 ovarian
  GI50: 8.49 µM
  TGI: > 37.3 µM
OVCAR-4 ovarian
  GI50: 13.9 µM
  TGI: > 72.2 µM
M14 melanoma
  GI50: 5 µM
  TGI: 14.9 µM
K-562 leukemia
  GI50: 5.32 µM
  TGI: > 100 µM
DU-145 prostate
  GI50: 7.7 µM
  TGI: 30 µM

## Nc1cc(N)c2nc(-c3ccccc3)c(Oc3ccc(F)cc3)nc2c1
COLO 205 colon
  GI50: 20 µM
  TGI: 36.5 µM
MOLT-4 leukemia
  GI50: 6.58 µM
  TGI: > 100 µM
RXF 393 renal
  GI50: 21.1 µM
  TGI: 46.5 µM
OVCAR-8 ovarian
  GI50: 22.5 µM
  TGI: 47.4 µM
OVCAR-5 ovarian
  GI50: 20.6 µM
  TGI: 47.6 µM
OVCAR-4 ovarian
  GI50: 8.32 µM
  TGI: 35.2 µM
M14 melanoma
  GI50: 17.1 µM
  TGI: 45 µM
K-562 leukemia
  GI50: 10.9 µM
  TGI: > 100 µM
DU-145 prostate
  GI50: 17.2 µM
  TGI: 36.8 µM

## CN1C2CC(C#N)C1C=CC2=O (stereo not given)
CCRF-CEM leukemia
  TGI: 29.9 µM and > 100 µM
MOLT-4 leukemia
  GI50: 15.7 µM and > 100 µM
  TGI: 68.7 µM and > 100 µM
RXF 393 renal
  GI50: 16.7 µM and > 100 µM
  TGI: 36.1 µM and > 100 µM
OVCAR-8 ovarian
  GI50: 24.5 µM and > 100 µM
  TGI: 70.9 µM and > 100 µM
OVCAR-5 ovarian
  GI50: 19.6 µM and > 100 µM
  TGI: 37.3 µM and > 100 µM
M14 melanoma
  GI50: 15.9 µM and > 100 µM
  TGI: 30.7 µM and > 100 µM
K-562 leukemia
  GI50: 14 µM and 78.1 µM
  TGI: 90.2 µM and > 100 µM
DU-145 prostate
  GI50: 22.8 µM and 58.9 µM
  TGI: 61.1 µM and > 100 µM

## COc1ccc(OC)c(-c2cc(-c3ccccc3)nn2-c2ccc(S(=O)(=O)NC(C)=O)cc2)c1
CCRF-CEM leukemia
  GI50: 2.13 µM
  TGI: 6.55 µM
MOLT-4 leukemia
  GI50: 6.57 µM
  TGI: > 100 µM
RXF 393 renal
  GI50: 4.07 µM
  TGI: 9.31 µM
OVCAR-8 ovarian
  GI50: 5.99 µM
  TGI: 62.1 µM
OVCAR-5 ovarian
  GI50: 16.9 µM
  TGI: 31.3 µM
M14 melanoma
  GI50: 2.74 µM
  TGI: 8.74 µM
K-562 leukemia
  GI50: 3.36 µM
  TGI: 9.76 µM
DU-145 prostate
  GI50: 17.9 µM
  TGI: 36.9 µM

## Cc1cc2c(C(C)C)c(O)c(O)c(C=Nc3cc(C(F)(F)F)ccc3Cl)c2c(O)c1-c1c(C)cc2c(C(C)C)c(O)c(O)c(C=Nc3cc(C(F)(F)F)ccc3Cl)c2c1O
CCRF-CEM leukemia
  TGI: > 100 µM
COLO 205 colon
  TGI: 90.5 µM
RXF 393 renal
  TGI: 97.7 µM
OVCAR-8 ovarian
  TGI: > 100 µM
OVCAR-5 ovarian
  TGI: > 100 µM
M14 melanoma
  TGI: > 100 µM
K-562 leukemia
  TGI: > 100 µM
DU-145 prostate
  TGI: > 100 µM

## CN1CCCN(CCNc2nccc(-c3c(-c4cccc(O)c4)nc4sccn34)n2)S1(=O)=O
CCRF-CEM leukemia
  GI50: 8.29 µM and 4.7 µM
  TGI: 75 µM and 46.6 µM
COLO 205 colon
  GI50: 0.423 µM and 0.477 µM
  TGI: 12.4 µM and 21.8 µM
MOLT-4 leukemia
  GI50: 14.5 µM and 10.2 µM
  TGI: 52.1 µM and 41.2 µM
RXF 393 renal
  GI50: 5.26 µM and 2.72 µM
  TGI: 31 µM and 21.6 µM
OVCAR-5 ovarian
  GI50: 27 µM and 32.3 µM
  TGI: 75 µM and > 100 µM
OVCAR-4 ovarian
  GI50: 6.72 µM and 8.49 µM
  TGI: 52.2 µM and > 100 µM
M14 melanoma
  GI50: 0.17 µM and 0.128 µM
  TGI: 9.04 µM and 13.2 µM
K-562 leukemia
  GI50: 12.9 µM and 5.9 µM
  TGI: 75 µM and > 100 µM
DU-145 prostate
  GI50: 6.84 µM and 6.32 µM
  TGI: 46.9 µM and > 59.3 µM

## C[n+]1cc2c3c(ccc2c2ccc4cc5c(cc4c21)OCO5)OCO3
CCRF-CEM leukemia
  GI50: 0.217 µM
  TGI: 1.15 µM
COLO 205 colon
  GI50: 0.255 µM
  TGI: 0.778 µM
MOLT-4 leukemia
  GI50: 0.3 µM
  TGI: 0.697 µM
RXF 393 renal
  GI50: 0.351 µM
  TGI: 1.32 µM
OVCAR-8 ovarian
  GI50: 0.326 µM
  TGI: 1.4 µM
OVCAR-5 ovarian
  GI50: 1.16 µM
  TGI: 2.42 µM
M14 melanoma
  GI50: 0.412 µM
  TGI: 1.6 µM
K-562 leukemia
  GI50: 0.47 µM
  TGI: 3.06 µM
DU-145 prostate
  GI50: 0.726 µM
  TGI: 1.96 µM

## C=C1C(=O)O[C@@H]2C[C@@]3(C)CC(=O)C=C(C)[C@@H]3C[C@H]12
CCRF-CEM leukemia
  TGI: > 100 µM
COLO 205 colon
  TGI: 11.4 µM
MOLT-4 leukemia
  TGI: 21.8 µM
RXF 393 renal
  TGI: 18.2 µM
OVCAR-8 ovarian
  TGI: 42.9 µM
OVCAR-5 ovarian
  TGI: 32.9 µM
OVCAR-4 ovarian
  TGI: 23.2 µM
M14 melanoma
  TGI: 32.7 µM
DU-145 prostate
  TGI: 16.1 µM

## COc1cc(Nc2ccnc(N3CCN(c4ccnc5cc(Cl)ccc45)CC3)n2)cc(OC)c1
CCRF-CEM leukemia
  GI50: 1.38 µM
  TGI: > 100 µM
RXF 393 renal
  GI50: 1.86 µM
  TGI: > 100 µM
OVCAR-8 ovarian
  GI50: 1.97 µM
  TGI: > 23 µM
OVCAR-5 ovarian
  GI50: 2.41 µM
  TGI: > 100 µM
OVCAR-4 ovarian
  GI50: 0.477 µM
  TGI: > 45.1 µM
K-562 leukemia
  GI50: 0.432 µM
  TGI: > 100 µM
DU-145 prostate
  GI50: 3.25 µM
  TGI: > 100 µM

## COc1cc(/C=C2\CN(C)CC3=C2Nc2nc(SC)[nH]c(=O)c2C3c2cc(OC)c(OC)c(OC)c2)cc(OC)c1OC (stereo not given)
COLO 205 colon
  GI50: 2.11 µM
  TGI: 4.73 µM
MOLT-4 leukemia
  GI50: 2.92 µM
  TGI: 88 µM
RXF 393 renal
  GI50: 1.81 µM
  TGI: 3.45 µM
OVCAR-8 ovarian
  GI50: 2.89 µM
  TGI: > 100 µM
OVCAR-5 ovarian
  GI50: 4.83 µM
  TGI: 16.7 µM
OVCAR-4 ovarian
  GI50: 4.99 µM
  TGI: 21.2 µM
M14 melanoma
  GI50: 2.98 µM
  TGI: 9.44 µM
DU-145 prostate
  GI50: 3.6 µM
  TGI: 12.1 µM
